{
  "source": "patent US4608365A",
  "about": "“Treatment of neurologic functions” (priority 1984, dated 1986)",
  "key": {"[1]": {"test_system": "tissue-cultured fetal rat lower motor neurons", "test": "Trophic-like effect on tissue-cultured fetal rat lower motor neurons (cholineactyltransferase)", "type": "cell-based", "conditions": "chronic", "from_the_text": "\"Transmitter-like,\" as used herein, includes not only direct excitatory (or facilitatory) and inhibitory actions on the lower motor neurons, but also any action on lower motor neurons or afferents thereto that results indirectly in such an effect. That excitatory TRH action, increasing patients' strength, is either directly excitatory or facilitatory and perhaps analogous to the lower motor neuron facilitation of glutamate excitation noted with TRH micropipetted into spinal cords of normal amphibia (Nicoll, J. Pharmac. Exp. Therap. 1978; 207: 817-24; Phillis et al., Can. J. Physiol. Pharmacol. 1979; 57: 887-99 and rodents, White Abstr. Soc. Neurosci 1983, 9: 714, and in other animal studies. An inhibitory transmitter-like action seems likely to underlie both the rapid-onset autorefractory phenomenon and the possibly related clinical reduction of spasticity, spasms and cramps. A tachyphalaxis or desensitization phenomenon, perhaps similar to the clinical autorefractory state, has been noted in animal lower motor neurons with larger amounts of TRH micropipetted into the spinal cord (Nicoll and Phillis, et al., supra)."}, "patients given TRH": {"test_system": "patients given TRH", "test": "Amelioration of TRH side-effects by co-medication", "design": "species or system human", "conditions": "in vivo", "from_the_text": "In addition, all patients experiencing the various described side-effects considered those side-effects to be minor and desired further TRH treatments."}},
  "data": [
    {"molecule": "insulin", "values": [
      {"measurement": "enhancement of cholineactyltransferase", "setting": "[1]", "result": 10, "unit": "fold"}
    ]},
    {"molecule": "CC(N)C(O)c1ccccc1", "note": "(stereo not drawn) [phenylpropanolamine]", "values": [
      {"measurement": "effect on shivering side-effect of TRH", "setting": "patients given TRH", "result": "diminish the shivering side-effect"}
    ]},
    {"molecule": "CN(C)CCOC(c1ccccc1)c1ccccc1.Cn1c(=O)c2[nH]c(Cl)nc2n(C)c1=O", "note": "[dimenhydrate]", "values": [
      {"measurement": "effect on nausea side-effect of TRH", "setting": "patients given TRH", "result": "diminishes the rare, occurring nausea side-effect"}
    ]}
  ]
}
